Reference: ChEMBL document CHEMBL1157248, “Polar steroidal compounds from the far eastern starfish Henricia leviuscula” (J Nat Prod, 2006)

Experiments:
Assay type in all cases: cell-based, Erythrocyte; call rule not given here
[1] = Toxicity in mouse erythrocytes assessed as hemolysis at 0.08 mM during 5 mins; settings: read-out: Activity
[2] = Toxicity in mouse erythrocytes assessed as hemolysis
[3] = Toxicity in mouse erythrocytes assessed as hemolysis at 0.1 mM during 5 mins

Compound | hemolysis at 5 min, 80 µM [1] [%] | HC50 [2] [µM] | hemolysis at 5 min, 100 µM ([3]; mouse erythrocytes, read-out: Activity) [%] | Activity ([3]; erythrocyte, 5 min, 100 µM)
CO[C@@H]1[C@@H](OC)[C@H](O[C@@H]2C=C3[C@H](O)C[C@@]4(O)[C@@H]5[C@@H](O)[C@H](O)[C@H]([C@H](C)/C=C/C(C)CCO)[C@@]5(C)CC[C@@H]4[C@@]3(C)CC2)OC[C@H]1O (some centres undefined) | 100 | 80 |  | 
CC(C)[C@@H](O)CC[C@@H](C)[C@H]1C[C@@H](O)[C@@H]2[C@]1(C)CC[C@@H]1[C@@]3(C)CC[C@H](O)[C@H](O)[C@@H]3[C@H](O)C[C@]12O |  | 53 | 100 | 
C[C@H](CC[C@@H](O)C(C)(C)O)[C@H]1C[C@@H](O)[C@@H]2[C@]1(C)CC[C@@H]1[C@@]3(C)CC[C@H](O)[C@H](O)[C@@H]3[C@H](O)C[C@]12O |  | 210 |  | Not Active
CO[C@@H]1[C@@H](OC)[C@H](O[C@@H]2C=C3[C@H](O)C[C@@]4(O)[C@@H]5[C@@H](O)[C@H](O)[C@H]([C@H](C)/C=C/[C@@H](C)[C@H](C)CO)[C@@]5(C)CC[C@@H]4[C@@]3(C)CC2)OC[C@H]1O [HENRICIOSIDE H2] | 70 | 120 |  | 
CO[C@H]1[C@H](O[C@H]2CC[C@@]3(C)[C@H]([C@H]2O)[C@H](O)C[C@]2(O)[C@@H]3CC[C@]3(C)[C@@H]([C@H](C)CC[C@H](O[C@@H]4O[C@@H](CO)[C@H](O)[C@H]4O)C(C)C)C[C@H](O)[C@H]32)OC[C@@H](OC)[C@@H]1O [LAEVIUSCOLOSIDE G] |  | 130 |  | 
